In patent US20240299376A1, “METHOD OF TREATING A CONDITION USING A […] EFFECTIVE DOSE OF 1-(1-OXO-1,2-DIHYDROISOQUINOLIN-5-YL)-5-(TRIFLUOROMETHYL)-N-(2-(TRIFLUOROMETHYL)PYRIDIN-4-YL)-1H-PYRAZOLE-4-CARBOXAMIDE” (Janssen Pharmaceutica NV, priority 2021, published 2024):
Where two headings read alike, the source gives them in different places.

Experiments:
Single IV dose plasma PK = assay type: in vivo, rat; details: for C0 / Vd / AUC(0-inf) / clearance / half-life: male, plasma, S-D; for C0 / Vd: Rat; for Vd / AUC(0-inf) / clearance / half-life: iv, 1 mg/kg; for Vd: read-out: Vdss
Procedure: Single intravenous (IV) dose PK was conducted in mice (two strains), rats, monkeys, and dogs at a dose of 1 mg/kg in 70% PEG400 (PEG400/water 70:30) by bolus injection. The time course for plasma sample was optimized to fully characterize the disposition profile in each species. PK analysis was by non-compartmental method.

[1] = Preliminary food effect assessment at steady state; assay type: in vivo, human
Procedure: Preliminary food effect was assessed in 8 subjects at steady state: 2 subjects at 100 mg (2×50 mg), 1 subject at 400 mg (2×200 mg), 1 subject at 200 mg (4×50 mg) and 4 subjects at 300 mg (3×100 mg). In the fasting condition, JNJ-67856633 was administered after overnight fasting for at least 8 hours. In the fed condition, following an overnight fast of at least 8 hours, the subjects were given a high-fat meal 30 minutes before drug intake. In both conditions, no food was allowed for at least 4 hours after study drug intake. Individual plasma concentrations of JNJ-67856633 under fasting and fed conditions using 50 mg or 200 mg capsules are shown in Table 16.

[2] = 14-day oral toxicity study toxicokinetics in Sprague-Dawley rats; assay type: in vivo; details: rat, plasma; for Cmax / AUC(0-t): mean; for AUC(0-t): read-out: AUC0-24 h; for Tmax: range
Procedure: Repeated-dose PK (toxicokinetics) were obtained as part of the repeated oral dose toleration toxicity studies in rats and dogs.
There was no further increase in the daily exposure parameters at 1,000 mg/kg relative to those from 200 mg/kg/day. There was no effect of gender on exposure and there was no increase in daily exposure parameters on Day 14 relative to those observed after the first dose.

[3] = system: human cytokine IL-10 in serum; assay: Serum IL-10 (MSD assay) after a single dose in OCI-LY3 tumor-bearing NSG mice; assay type: in vivo
Procedure: NF-κB signaling regulates the secretion of multiple cytokines, including interleukin-10 (IL-10). MALT1 inhibition results in a decrease of IL-10 transcription and translation as well as secretion. Levels of the human cytokine IL-10 were measured in the serum of OCI-LY3 or OCI-LY10 ABC-DLBCL tumor bearing mice using a Mesoscale Discovery assay (MSD). 25 μL of mouse serum was transferred to an MSD plate (V-Plex Proinflammation Panel I (human) kit) and incubated together with 25 μL diluent 2 (MSD; R51BB-3) for 2 hours at RT followed by a 2-hour incubation with IL-10 antibody solution. Plates were read on a SECTOR imager. Serum human IL-10 levels were correlated to serum compound concentration.
Serum IL-10 levels are graphed as the mean+/−SD.
For PD, when tumors reached 550-750 mm^3 animals were assigned randomly into the treatment groups and treated as presented in Table 5. Dose volumes were adjusted to individual body weights at 10 mL/kg. For both PD studies, serum was collected at 2 and 12 hours post treatment from the retro-orbital sinus. At 24 hours post treatment, animals were bled via decapitation and tumors were excised, weighed, and divided for bioanalysis and ex vivo PD analysis. Blood was centrifuged at 10,000 rpm and serum divided for bioanalysis and PD analysis.

[4] = Sprague-Dawley (S-D), rat, 3M, 1 mg/kg IV in 70% PEG400 (-AAA), mean
[5] = Sprague-Dawley (S-D), rat, 6M, 1 mg/kg IV, dosed as the -ZAF salt
[6] = female, 30 mg/kg/day, female, Day 0, 30 mg/kg/day
[7] = female, 30 mg/kg/day, female, Day 13, 30 mg/kg/day
[8] = female, 200 mg/kg/day, female, Day 0, 200 mg/kg/day
[9] = female, 200 mg/kg/day, female, Day 13, 200 mg/kg/day
[10] = female, 1000 mg/kg/day, female, Day 0, 1,000 mg/kg/day
[11] = female, 1000 mg/kg/day, female, Day 13, 1,000 mg/kg/day
[12] = male, 30 mg/kg/day, male, Day 0, 30 mg/kg/day
[13] = male, 30 mg/kg/day, male, Day 13, 30 mg/kg/day
[14] = male, 200 mg/kg/day, male, Day 0, 200 mg/kg/day
[15] = male, 200 mg/kg/day, male, Day 13, 200 mg/kg/day
[16] = male, 1000 mg/kg/day, male (4M), Day 13, 1,000 mg/kg/day
[17] = male, 1000 mg/kg/day, male, Day 0, 1,000 mg/kg/day

## O=C(Nc1ccnc(C(F)(F)F)c1)c1cnn(-c2cccc3c(=O)[nH]ccc23)c1C(F)(F)F [Compound A, 1-(1-oxo-1,2-dihydroisoquinolin-5-yl)-5-(trifluoromethyl)-N-[2-(trifluoromethyl)pyridin-4-yl]-1H-pyrazole-4-carboxamide]
Single IV dose plasma PK; Sprague-Dawley (S-D), 6M, 1 mg/kg IV, dosed as the -ZAF salt, mean
  C0: 1450 ng/mL
Single IV dose plasma PK; [4]
  Vd: 0.86 L/kg
  AUC(0-inf): 7.95 µg·h/mL
  clearance: 2.15 mL/min/kg
  half-life: 10 h
Single IV dose plasma PK; [5]
  Vd: 0.622 L/kg
  AUC(0-inf): 9.78 µg·h/mL
  clearance: 1.7 mL/min/kg
  half-life: 5.33 h
Single IV dose plasma PK; Sprague-Dawley, 3M, 1 mg/kg IV in 70% PEG400 (-AAA), mean
  C0: 2200 ng/mL
Single IV dose plasma PK; rat, LBF 55.2 mL/min/kg
  CL as fraction of liver blood flow (LBF): 1.5%
[1]; 2 × 50 mg, fasted condition, steady state, individual values, N = 2, listed as JNJ-67856633
  Cmax: 18200 ng/mL
[1]; 2 × 50 mg, fed condition (high-fat meal), steady state, individual values, N = 2, listed as JNJ-67856633
  Cmax: 18400 ng/mL
[1]; 2 × 50 mg, fed condition, steady state, individual values, N = 2, listed as JNJ-67856633
  AUCτ: 421 µg·h/mL
[1]; 8 subjects at steady state
  steady state exposure (Cmax and AUCτ) fasting vs fed: comparable
[1]; human, plasma, oral, 100 mg, 2 × 50 mg, fasted condition, steady state, N = 2
  AUC: 313 µg·h/mL
[1]; human, plasma, oral, 100 mg, 2 × 50 mg, fasted condition, steady state, individual values, N = 2, read-out: Cmax
  Cmax: 15300 ng/mL
[1]; human, plasma, oral, 100 mg, 2 × 50 mg, fasted condition, steady state, individual values, N = 2, read-out: Tmax
  Tmax: 2 h
[1]; human, plasma, oral, 100 mg, 2 × 50 mg, fed condition (high-fat meal), steady state, individual values, N = 2, read-out: Cmax
  Cmax: 13400 ng/mL
[1]; human, plasma, oral, 100 mg, 2 × 50 mg, fed condition, steady state, individual values, N = 2
  AUC: 304 µg·h/mL
[1]; human, plasma, oral, 100 mg, 2 × 50 mg, fed condition, steady state, individual values, N = 2, read-out: Tmax
  Tmax: 6 h
[1]; human, plasma, oral, 200 mg, 4 × 50 mg, fasted condition, steady state, N = 1
  AUC: 958 µg·h/mL
[1]; human, plasma, oral, 200 mg, 4 × 50 mg, fasted condition, steady state, N = 1, read-out: Cmax
  Cmax: 47500 ng/mL
[1]; human, plasma, oral, 200 mg, 4 × 50 mg, fasted condition, steady state, N = 1, read-out: Tmax
  Tmax: 1 h
[1]; human, plasma, oral, 200 mg, 4 × 50 mg, fed condition, steady state, N = 1
  AUC: 1010 µg·h/mL
[1]; human, plasma, oral, 200 mg, 4 × 50 mg, fed condition, steady state, N = 1, read-out: Cmax
  Cmax: 48400 ng/mL
[1]; human, plasma, oral, 200 mg, 4 × 50 mg, fed condition, steady state, N = 1, read-out: Tmax
  Tmax: 24 h
[1]; human, plasma, oral, 400 mg, 2 × 200 mg, fasted condition, steady state, N = 1
  AUC: 1100 µg·h/mL
[1]; human, plasma, oral, 400 mg, 2 × 200 mg, fasted condition, steady state, N = 1, read-out: Cmax
  Cmax: 61100 ng/mL
[1]; human, plasma, oral, 400 mg, 2 × 200 mg, fed condition, steady state, N = 1
  AUC: 1320 µg·h/mL
[1]; human, plasma, oral, 400 mg, 2 × 200 mg, fed condition, steady state, N = 1, read-out: Cmax
  Cmax: 64000 ng/mL
[1]; human, plasma, oral, fasting conditions, 8 subjects at steady state, read-out: Tmax range
  Tmax: 0 to 4 h
[1]; human, plasma, oral, fed conditions, 8 subjects at steady state, read-out: Tmax range
  Tmax: 0.5 to 24 h
[2]; [6]
  Cmax: 27100 ng/mL
  AUC(0-t): 366 µg·h/mL
  Tmax: 1 to 7 h
[2]; [7]
  Cmax: 33400 ng/mL
  AUC(0-t): 451 µg·h/mL
  Tmax: 2 to 4 h
[2]; [8]
  Cmax: 93100 ng/mL
  AUC(0-t): 93.1 µg·h/mL
[2]; [9]
  Cmax: 96100 ng/mL
  AUC(0-t): 1300 µg·h/mL
  Tmax: 2 to 7 h
[2]; [10]
  Cmax: 83200 ng/mL
  AUC(0-t): 1140 µg·h/mL
  Tmax: 2 to 4 h
[2]; [11]
  Cmax: 83200 ng/mL
  AUC(0-t): 83.2 µg·h/mL
[2]; male, 30 mg/kg/day, male, Day 0 (first day of dosing), 30 mg/kg/day
  Cmax: 24400 ng/mL
[2]; [12]
  AUC(0-t): 247 µg·h/mL
  Tmax: 2 to 4 h
[2]; [13]
  Cmax: 26700 ng/mL
  AUC(0-t): 305 µg·h/mL
  Tmax: 2 h
[2]; [14]
  Cmax: 96700 ng/mL
  AUC(0-t): 1410 µg·h/mL
  Tmax: 7 to 9 h
[2]; [15]
  Cmax: 63900 ng/mL
  AUC(0-t): 803 µg·h/mL
  Tmax: 2 to 7 h
[2]; [16]
  Cmax: 83200 ng/mL
  AUC(0-t): 898 µg·h/mL
  Tmax: 2 to 4 h
[2]; [17]
  Cmax: 90800 ng/mL
  AUC(0-t): 1120 µg·h/mL
  Tmax: 2 to 9 h
[3]; single dose 10 mg/kg, 12 hours post dose
  inhibition or reduction of serum IL-10: intermediate inhibition or reduction
[3]; single dose 30 mg/kg, 12 hours post dose
  inhibition or reduction of serum IL-10: completely inhibited or reduced serum IL-10
[3]; single dose 100 mg/kg, 12 hours post dose
  inhibition or reduction of serum IL-10: completely inhibited or reduced serum IL-10
[3]; single dose, 24 hours post dose
  inhibition or reduction of serum IL-10: lost at 24 hours post dose
